In patent publication US10822367B2, “Pharmaceutical composition for preventing or treating dementia and improving cognitive function, comprising glasswort extract” (priority 2017, dated 2020):
≈ marks a conversion by molar mass, not a printed value.

Experiments:
[1] = molecular target: acetylcholine esterase (AChE) (Homo sapiens, UniProt P22303); assay: Acetylcholine esterase inhibitory activity (partially corrected Ellman's coupled enzyme assay); assay type: biochemical
From the text: It has been reported that as the concentration of acetylcholine esterase (AChE) increases in the cerebral blood vessels, cholinergic neurotransmitters for neurons are deficient in neurons, causing memory and cognitive impairment. Therefore, the measurement of AChE inhibitory activity can be used as a tool for the development of a drug or health functional raw material for prevention and treatment of dementia or enhancement of cognitive ability. In the present invention, the AChE inhibitory activity of a desalted Salicornia europaea extract, a desalted Salicornia europaea enzymatic hydrolysis extract, or purified fractions obtained from a desalted Salicornia europaea extract were measured, and the measurement was conducted by partially correcting Ellman's coupled enzyme assay. That is, 170 μL of 100 mM phosphate buffer (pH 8), […] of 2 mM dithiobisnitrobenzoic acid (DTNB), and 20 μL of an extraction sample were added to on a 96-well microplate. […] The enzymatic reaction solution was incubated at 37° C. for 10 minutes, and then the absorbance was measured by a UV-VIS microreader at 410 nm. The AChE inhibitory activity was calculated as below by comparison between the absorbance (Ac) of a control group not containing a substrate and a sample and the absorbance (As) of a test group. *AChE inhibitory activity (%)=[1−(As/Ac)]×100 • Ac: absorbance of a control group, • As: absorbance of a sample group.

[2] = system: forgetfulness animal models using scopolamine; assay: Y-maze test; assay type: in vivo
Protocol: A test was conducted to investigate the improvement efficacy of cognitive ability and memory of the desalted Salicornia europaea extract (PM-EE) obtained in example 4-1 above and acanthoside B as an AChE inhibitory and neuroinflammation inhibiting substance isolated from PM-EE in examples 4-2 and 4-3. The Y-maze test was conducted in forgetfulness animal models using scopolamine. In the present test, PM-EE and acanthoside B were dissolved in 10% Tween 80, and then the mixture was orally administered at different concentrations (PM-EE and acanthoside B). […] For the Y-maze test, a test animal was carefully placed in a test apparatus composed of three arms (A, B, C) of a black polyvinyl plastic, each of the arms being 50 cm in length, 10 cm in width, and 20 cm in height, and the folding angle of the three arms being 120 degrees, and the test animal was allowed to freely move for 8 minutes, and then the number of arm entries was recorded. If the test animal sequentially entered the three different arms, 1 point (actual alternation) was given. The alternation behavior was calculated by the following formula. Alternation behavior=(actual alternation)/(maximum alternation)×100 (maximum alternation: the total number of arm entries−2)

[3] = system: forgetfulness animal models using scopolamine; assay: Passive avoidance test; assay type: in vivo, mice
Protocol: Mice were placed in the bright section with shining light and allowed to go over for 20 seconds. Subsequently, the guillotine door was opened and the mouse was allowed to enter into the dark section. […] The time from when the guillotine door was opened to when the mouse entered the dark section was measured. Once the mouse entered the dark section, the guillotine door was closed, and an electric shock of 0.25 mA flows through a grid bottom for 3 seconds, and the mouse remembered this electrical action. The present test was conducted 24 hours after the learning test. […] Here, the longer the time taken, the better the cognitive ability and memory in passive avoidance.

[4] = Solubility (physical and chemical properties); assay type: physicochemical
From the text: As a result of the measurement above, the compound S7-L3-3 was identified to be acanthoside B ((2S,3R,4S,5S,6R)-2-[4-[(3S,3aR,6S,6aR)-3-(4-hydroxy-3,5-dimethoxyphenyl)-1,3,3a,4,6,6a-hexahydrofuro [3,4-c]furan-6-yl]-2,6-dimethoxyphenoxy]-6-(hydroxymethyl)oxane-3,4,5-triol) having a molecular weight of 580, which has not been reported in Salicornia europaea until now, and the physical and chemical properties thereof are as follows.

[5] = system: neuroinflammation-related genes (IL-1β, iNOS, COX-2, and TNF-α) in BV2 microglia; assay: Neuroinflammation gene expression by RT-PCR; assay type: cell-based, mouse
Protocol: BV2 microglia as neuroglia were treated with LPS and the desalted Salicornia europaea extract (PM-EE) at different concentrations (0-100 μg/mL). After 1 hour, cells were stimulated by LPS, and after 3 hours, an RNA sample was isolated by an RNA extraction buffer. Thereafter, RT-PCR assay was conducted through RNA purification procedure. […] RNA isolated from BV2 microglia was subjected to denaturation at 95° C. for […], 45 times of chain reactions in conditions of 95° C. for 5 seconds and 60° C. for 20 seconds, and annealing to 95° C. at 0.2° C./15 sec, using the primers in Table 4, and then the reaction was stopped. Last, separation by bp size was conducted through agarose gel electrophoresis. Then, bands were checked under UV, and fluorescence was imaged by a camera. As shown in the results in FIG. 9, the expressions of neuroinflammation-related genes (IL-1β, iNOS, COX-2, and TNF-α) were not or slightly observed in a control group treated without LPS.
A test was conducted to investigate an effect of acanthoside B on neuroinflammation factor gene expression. […] After 3 hours, RNA sample was separated by RNA extraction buffer to synthesize cDNA, and RT-PCR was conducted by the same method as in example 6 using the primers in Table 4. […]

[6] = system: LPS-stimulated mouse BV-2 microglia; assay: LPS-induced nitric oxide (NO) production, NO assay using Griess reagent; assay type: cell-based; settings: 1, 5, 100 μg/mL as printed; LPS 200 ng/ml (FIG. 10b)
Protocol: (§1) A test was conducted to investigate effects of the neuroinflammation inducing substance LPS (200 mg/mL) and the active ingredient acanthoside B of PM-EE on brain glia cells in LPS-stimulated brain glia cells BV2 microglia. The cells were treated with each material at different concentrations (1, 5, 10 μg/mL), and a cytotoxicity test was conducted through MTT analysis. […] Therefore, in order to analyze the neuroinflammation inhibitory ability of acanthoside B at concentrations (1, 5, 100 μg/mL) without cytotoxicity, as for whether the nitric oxide (NO) produced in LPS (200 ng/ml)-stimulated mouse BV-2 microglia was inhibited by acanthoside B, the content of intracellular LPS-induced nitric oxide (NO) was measured through NO assay using Griess reagent.

[7] = system: BV2 microglia; assay: Cytotoxicity test through MTT assay in LPS-stimulated BV2 microglia; settings: acanthoside B 1, 5, 10 μg/mL, alone or together with LPS (FIG. 10a)
Protocol: as §1

[8] = system: iNOS and COX-2 protein in LPS-stimulated BV2 microglia; assay: Neuroinflammation factor protein expression by western blotting; assay type: cell-based, mouse; settings: acanthoside B; LPS-induced (FIG. 10c)
Protocol: as §1

Chain of acetylcholine esterase (AChE) (P22303 32-614): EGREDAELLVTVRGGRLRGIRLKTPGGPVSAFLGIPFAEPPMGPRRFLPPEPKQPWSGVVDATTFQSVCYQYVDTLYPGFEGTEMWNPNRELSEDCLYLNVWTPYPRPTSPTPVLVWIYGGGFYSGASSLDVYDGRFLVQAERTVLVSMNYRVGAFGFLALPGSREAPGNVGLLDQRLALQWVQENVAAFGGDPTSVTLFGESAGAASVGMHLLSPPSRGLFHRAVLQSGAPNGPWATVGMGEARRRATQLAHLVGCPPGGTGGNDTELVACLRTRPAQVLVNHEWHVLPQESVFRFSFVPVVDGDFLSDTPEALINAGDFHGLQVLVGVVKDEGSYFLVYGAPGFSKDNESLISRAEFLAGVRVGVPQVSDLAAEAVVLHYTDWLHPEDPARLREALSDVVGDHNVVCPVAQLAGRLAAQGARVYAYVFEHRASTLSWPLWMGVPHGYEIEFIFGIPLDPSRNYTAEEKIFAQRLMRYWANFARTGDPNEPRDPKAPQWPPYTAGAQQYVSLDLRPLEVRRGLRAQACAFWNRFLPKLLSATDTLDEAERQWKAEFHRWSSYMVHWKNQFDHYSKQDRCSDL

COc1cc([C@H]2OC[C@@H]3[C@@H]2CO[C@H]3c2cc(OC)c(O[C@@H]3O[C@H](CO)[C@@H](O)[C@H](O)[C@H]3O)c(OC)c2)cc(OC)c1O[C@@H]1O[C@H](CO)[C@@H](O)[C@H](O)[C@H]1O [Elutheroside E, eleutheroside E, reference compound]
IC50 (AChE inhibitory activity) [1]: 8.2 ± 0.37 µg/mL (≈ 11 µM)

COc1cc([C@H]2OC[C@H]3[C@@H]2CO[C@@H]3c2cc(OC)c(O[C@@H]3O[C@H](CO)[C@@H](O)[C@H](O)[C@H]3O)c(OC)c2)cc(OC)c1O [acanthoside B, (2S,3R,4S,5S,6R)-2-[4-[(3S,3aR,6S,6aR)-3-(4-hydroxy-3,5-dimethoxyphenyl)-1,3,3a,4,6,6a-hexahydrofuro [3,4-c]furan-6-yl]-2,6-dimethoxyphenoxy]-6-(hydroxymethyl)oxane-3,4,5-triol]
Cognitive ability and memory improvement compared with galantamine (Y-maze) ([2]; galantamine 10 mg/kg as positive control): superior cognitive ability and memory improvement effects to galantamine | Alternation behavior (spatial cognitive ability) ([2]; orally administered at different concentrations in 10% Tween 80, scopolamine model (FIG. 13a, 13b)): restored dose-dependently | Cognitive ability and memory improvement compared with galantamine (passive avoidance) ([3]; administration at high concentrations): more superior cognitive ability and memory improvement effects compared with the dementia drug, galantamine | Transfer latency time (TLT: retention time) ([3]; scopolamine 1 mg/kg intraperitoneally, different concentrations of sample (FIG. 12a, 12b)): significantly increased | IC50 ([1]; IC50 (AChE inhibitory activity)): 4.82 µM | inhibition at 10 µg/mL ([1]; read-out: AChE inhibitory activity): 93.2% | Solubility [4]: soluble in methanol, ethanol, ethyl acetate, ethyl acetate, chloroform, or pyridine | LPS-induced amplified neuroinflammation-related genes (IL-1β, iNOS, COX-2, TNF-α) at high concentration ([5]; 10 μg/mL (FIG. 11)): restored to almost the same level as that of a control group before LPS induction | mRNA expression pattern of IL-1β, iNOS, COX-2, and TNF-α (RT-PCR) ([5]; 1, 5, 10 μg/mL, LPS-stimulated (FIG. 11)): reduced dose-dependently | LPS-induced amplified intracellular nitric oxide (NO) [6]: remarkably decreased dependently on the treatment concentration | Cell viability (MTT) [7]: not significantly changed | Expressions of iNOS and COX-2 protein (western blotting) [8]: remarkably inhibited

CN1[C@@H]2C[C@@H](OC(=O)[C@H](CO)c3ccccc3)C[C@H]1[C@@H]1O[C@@H]12 [scopolamine, reference compound]
Alternation behavior after administration of scopolamine ([2]; normal control group scored 50 points): 45.5 points
